Measured values: patent US9265773B2, “Tetracyclic heterocycle compounds and methods of use thereof for the treatment of viral diseases” (priority 2011, dated 2016)

Experiments:
[1] = test system: HCV replicon genotype 1a; test: microbe, parasite or virus in culture; type: cell-based; conditions: Hepatitis C virus, 96 h, genotype 1a replicon cells, incubated 96 hours, NS3/4A ELISA readout
[2] = test system: HCV replicon genotype 1b; test: microbe, parasite or virus in culture; type: cell-based; conditions: Hepatitis C virus, 96 h, genotype 1b replicon cells, incubated 96 hours, NS3/4A ELISA readout

SMILES | IC50 [1] [nM] | IC50 [2] [nM]
CNC(=O)c1c(-c2ccc(F)cc2)oc2cc(N(C)S(C)(=O)=O)c(-c3ccc4c(n3)-c3cc5ccccc5n3CO4)cc12 [Compound 1, 2-(4-fluorophenyl)-N-methyl-6-(N-methylmethylsulfonamido)-5-(6H-pyrido[2′,3′:5,6][1,3]oxazino[3,4-a]indol-2-yl)benzofuran-3-carboxamide] | 2.4 | 4.8
CNC(=O)c1c(-c2ccc(F)cc2)oc2cc(N(C)S(C)(=O)=O)c(-c3ccc4c(n3)-c3cc5c(F)cccc5n3CO4)cc12 [Compound 2, 5-(11-fluoro-6H-pyrido[2′,3′:5,6][1,3]oxazino[3,4-a]indol-2-yl)-2-(4-fluorophenyl)-N-methyl-6-(N-methylmethylsulfonamido)benzofuran-3-carboxamide] | 1.6 | 2.7
CNC(=O)c1c(-c2ccc(F)cc2)oc2cc(N(C)S(C)(=O)=O)c(-c3ccc4c(n3)-c3cc5cc(F)ccc5n3CO4)cc12 [Compound 3] | 2 | 3.7
CNC(=O)c1c(-c2ccc(F)cc2)oc2cc(N(C)S(C)(=O)=O)c(-c3ncc4c(n3)-c3cc5ccccc5n3CO4)cc12 [Compound 4] | 0.7 | 1.3
CNC(=O)c1c(-c2ccc(F)cc2)oc2cc(N(C)S(C)(=O)=O)c(-c3ncc4c(n3)-c3cc5c(F)cccc5n3CO4)cc12 [Compound 5] | 1 | 2
CNC(=O)c1c(-c2ccc(F)cc2)oc2cc(N(C)S(C)(=O)=O)c(-c3ncc4c(n3)-c3cc5cc(F)ccc5n3CO4)cc12 [Compound 6] | 1.5 | 2.3
CNC(=O)c1c(-c2ccc(F)cc2)oc2cc(N(C)S(C)(=O)=O)c(-c3ncc4c(n3)-c3cc5ccccc5n3CCO4)cc12 [Compound 7] | 2.4 | 1.6
CNC(=O)c1c(-c2ccc(F)cc2)oc2cc(N(C)S(C)(=O)=O)c(-c3ncc4c(n3)-c3cc5c(F)cccc5n3CCO4)cc12 [Compound 8] | 1.6 | 2.1
CNC(=O)c1c(-c2ccc(F)cc2)oc2cc(N(C)S(C)(=O)=O)c(-c3ncc4c(n3)-c3cc5ccccc5n3C(C)O4)cc12 (stereo not shown) [Compound 9] | 1.1 | 1.9
CNC(=O)c1c(-c2ccc(F)cc2)oc2cc(N(C)S(C)(=O)=O)c(-c3ccc4c(c3)-c3cc5ccccc5n3CO4)cc12 [Compound 10] | 1.6 | 2.4
CNC(=O)c1c(-c2ccc(F)cc2)oc2cc(N(C)S(C)(=O)=O)c(-c3cc4c(cn3)OCn3c-4cc4ccccc43)cc12 [Compound 11] | 2.1 | 1.8
CNC(=O)c1c(-c2ccc(F)cc2)oc2cc(N(C)S(C)(=O)=O)c(-c3ccc4c(n3)-c3cc5c(C#N)cccc5n3CO4)cc12 [Compound 12] | 1.6 | 1.7
CNC(=O)c1c(-c2ccc(F)cc2)oc2cc(N(C)S(C)(=O)=O)c(-c3ccc4c(n3)-c3cc5cc(C#N)ccc5n3CO4)cc12 [Compound 13] | 2 | 2.2
CNC(=O)c1c(-c2ccc(F)cc2)oc2cc(N(C)S(C)(=O)=O)c(-c3ccc4c(n3)-c3cc5c(Cl)cccc5n3CO4)cc12 [Compound 14] | 3 | 6.2
CNC(=O)c1c(-c2ccc(F)cc2)oc2cc(N(C)S(C)(=O)=O)c(-c3ccc4c(n3)-c3cc5ccc(Cl)cc5n3CO4)cc12 [Compound 15] | 9.1 | 9.9
CNC(=O)c1c(-c2ccc(F)cc2)oc2cc(N(C)S(C)(=O)=O)c(-c3cc4c(cn3)OCn3c-4cc4c(F)cccc43)cc12 [Compound 16] | 2.1 | 2.3
CNC(=O)c1c(-c2ccc(F)cc2)oc2cc(N(C)S(C)(=O)=O)c(-c3ccc4c(n3)-c3cc5ccc(F)cc5n3CO4)cc12 [Compound 17] | 4 | 3.9
CNC(=O)c1c(-c2ccc(F)cc2)oc2cc(N(C)S(C)(=O)=O)c(-c3ccc4c(n3)-c3cc5cccc(C#N)c5n3CO4)cc12 [Compound 18] | 9.2 | 5.4

SMILES | IC50 [1] [nM] | IC50 [2] [nM]
CNC(=O)c1c(-c2ccc(F)cc2)oc2cc(N(C)S(C)(=O)=O)c(-c3ccc4c(n3)-c3cc5cc(F)cc(F)c5n3CO4)cc12 [Compound 19] | 19 | 21
CNC(=O)c1c(-c2ccc(F)cc2)oc2cc(N(C)S(C)(=O)=O)c(-c3ccc4c(n3)-c3cc5cccc(F)c5n3CO4)cc12 [Compound 20] | 6.7 | 6.9
CNC(=O)c1c(-c2ccc(F)cc2)oc2cc(N(C)S(C)(=O)=O)c(-c3ccc4c(n3)-c3cc5cccc(Cl)c5n3CO4)cc12 [Compound 21] | 14 | 13
CNC(=O)c1c(-c2ccc(F)cc2)oc2cc(N(C)S(C)(=O)=O)c(-c3ccc4c(n3)-c3cc5ccc(C#N)cc5n3CO4)cc12 [Compound 22] | 3.5 | 1.9
CNC(=O)c1c(-c2ccc(F)cc2)oc2cc(N(C)S(C)(=O)=O)c(-c3cc4c(cn3)OCn3c-4cc4c(C#N)cccc43)cc12 [Compound 23] | 0.9 | 1.2
CNC(=O)c1c(-c2ccc(F)cc2)oc2cc(N(C)S(C)(=O)=O)c(-c3cnc4c(c3)-c3cc5ccccc5n3CO4)cc12 [Compound 24] | 3 | 5.1
CNC(=O)c1c(-c2ccc(F)cc2)oc2cc(N(C)S(C)(=O)=O)c(-c3cnc4c(n3)-c3cc5c(F)cccc5n3CO4)cc12 [Compound 25] | 1 | 1.8
CNC(=O)c1c(-c2ccc(F)cc2)oc2cc(N(C)S(C)(=O)=O)c(-c3ncc4c(n3)-c3cc5c(C#N)cccc5n3CO4)cc12 [Compound 26] | 1.1 | 1.2
CNC(=O)c1c(-c2ccc(F)cc2)oc2cc(N(C)S(C)(=O)=O)c(-c3nc4c(cc3F)OCn3c-4cc4c(F)cccc43)cc12 [Compound 27] | 2.9 | 6.1
CNC(=O)c1c(-c2ccc(F)cc2)oc2cc(N(C)S(C)(=O)=O)c(-c3ccc4c(n3)-c3cc5c(F)c(F)ccc5n3CO4)cc12 [Compound 28] | 2.1 | 4.5
CNC(=O)c1c(-c2ccc(F)cc2)oc2cc(N(C)S(C)(=O)=O)c(-c3nc4c(cc3OC)OCn3c-4cc4ccccc43)cc12 [Compound 29] | 4.8 | 8
CNC(=O)c1c(-c2ccc(F)cc2)oc2cc(N(C)S(C)(=O)=O)c(-c3ncc4c(n3)-c3cc5c(F)c(F)ccc5n3CO4)cc12 [Compound 30] | 1 | 2.1
CNC(=O)c1c(-c2ccc(F)cc2)oc2cc(N(C)S(C)(=O)=O)c(-c3ccc4c(n3)-c3cc5cc(C#N)cc(F)c5n3CO4)cc12 [Compound 31] | 7.2 | 6.5
CNC(=O)c1c(-c2ccc(F)cc2)oc2cc(N(C)S(C)(=O)=O)c(-c3nc4c(cc3C)OCn3c-4cc4c(F)cccc43)cc12 [Compound 32] | 5.7 | 19
CNC(=O)c1c(-c2ccc(F)cc2)oc2cc(N(C)S(C)(=O)=O)c(-c3cnc4c(n3)-c3cc5c(C#N)cccc5n3CO4)cc12 [Compound 33] | 0.9 | 1.2
CNC(=O)c1c(-c2ccc(F)cc2)oc2cc(N(C)S(C)(=O)=O)c(-c3cnc4c(c3)-c3cc5c(F)cccc5n3CO4)cc12 [Compound 34] | 1.4 | 3.3
CNC(=O)c1c(-c2ccc(F)cc2)oc2cc(N(C)S(C)(=O)=O)c(-c3cc4c(cn3)OCn3c-4cc4cc(F)ccc43)cc12 [Compound 35] | 2.5 | 4.7
